Earlier results, collected in patent US6566543B2, “2-arachidonylglycerol (2-AG)-an inhibitor of tumor necrosis factor-α and neuroprotector of brain in closed head injury” (Yissum Research Development Company of The Hebrew …, priority 2000, dated 2003).

Assays:
nitric oxide release = settings: astrocytes
TNF-α = settings: astrocytes
cannabinoid receptors = settings: previously shown, Ben-Shabat et al., 1998

| Structure (SMILES) | nitric oxide release (nitric oxide release) | inhibition of TNF-α production (TNF-α) | activity in numerous in vivo and in vitro assays (including binding to the cannabinoid receptors) (cannabinoid receptors) |
| --- | --- | --- | --- |
| CCCCC/C=C\C/C=C\C/C=C\C/C=C\CCCC(=O)NCCO [Anandamide, arachidonylethanolamide] | blocked nitric oxide release | relatively modest |  |
| CCCCC/C=C\C/C=C\CCCCCCCC(=O)OC(CO)CO [2-LinoG, 2-linoleoylglycerol] |  |  | inactive |
| CCCCCCCCCCCCCCCC(=O)OC(CO)CO [2-PalmG, 2-palmitoylglycerol] |  |  | inactive |
